Assay results: patent US20050197350A1, “Novel quinoline, tetrahydroquinazoline, and pyrimidine derivatives and methods of treatment related to the use thereof” (TAISHO PHARMACEUTICAL CO., LTD., priority 2003, published 2005)

Tested on: MCH receptors
Assay: MCH receptor activity class (method not given)
Conditions: class by percent of control at 10^−7 M or IC50

| SMILES | class |
| --- | --- |
| COc1ccccc1C(=O)N[C@H]1CC[C@@H](Nc2nc(C)cc(N(C)C)n2)CC1 [compound 2955] | 3 (Class 3 The value of percent of control at 10^−7 M was more than 60% or the value of IC50 was more than 200 nM.) |
| COc1ccc(C(=O)N[C@H]2CC[C@@H](Nc3nc(C)cc(N(C)C)n3)CC2)cc1 [compound 2956] | 3 (Class 3 The value of percent of control at 10^−7 M was more than 60% or the value of IC50 was more than 200 nM.) |
| Cc1cc(N(C)C)nc(N[C@H]2CC[C@@H](NC(=O)c3cccc(C#N)c3)CC2)n1 [compound 2957, 3-cyano-N-(cis-4-{[4-(dimethylamino)-6-methylpyrimidin-2-yl]amino}cyclohexyl)benzamide] | 1 (Class 1: The value of percent of control at 10^−7 M was less than 40% or the value of IC50 was less than 50 nM.) |
| Cc1cc(N(C)C)nc(N[C@H]2CC[C@@H](NC(=O)c3ccc(C#N)cc3)CC2)n1 [compound 2958, 4-cyano-N-(cis-4-{[4-(dimethylamino)-6-methylpyrimidin-2-yl]amino}cyclohexyl)benzamide] | 1 (Class 1: The value of percent of control at 10^−7 M was less than 40% or the value of IC50 was less than 50 nM.) |
| COc1cc(OC)cc(C(=O)N[C@H]2CC[C@@H](Nc3nc(C)cc(N(C)C)n3)CC2)c1 [compound 2959, N-(cis-4-{[4-(dimethylamino)-6-methylpyrimidin-2-yl]amino}cyclohexyl)-3,5-dimethoxybenzamide] | 1 (Class 1: The value of percent of control at 10^−7 M was less than 40% or the value of IC50 was less than 50 nM.) |
| Cc1cc(N(C)C)nc(N[C@H]2CC[C@@H](NC(=O)c3ccc(C(F)(F)F)c(F)c3)CC2)n1 [compound 2960, N-(cis-4-{[4-(dimethylamino)-6-methylpyrimidin-2-yl]amino}cyclohexyl)-3-fluoro-4-(trifluoromethyl)benzamide] | 2 (Class 2: The value of percent of control at 10^−7 M was from 40% to 60% or the value of IC′50 was from 50 nM to 200 nM.) |
| Cc1cc(N(C)C)nc(N[C@H]2CC[C@@H](NC(=O)c3ccc(F)c(C(F)(F)F)c3)CC2)n1 [compound 2961] | 1 (Class 1: The value of percent of control at 10^−7 M was less than 40% or the value of IC50 was less than 50 nM.) |
| Cc1cc(N(C)C)nc(N[C@H]2CC[C@@H](NC(=O)c3cc(F)cc(C(F)(F)F)c3)CC2)n1 [compound 2962, N-(cis-4-{[4-(dimethylamino)-6-methylpyrimidin-2-yl]amino}cyclohexyl)-3-fluoro-5-(trifluoromethyl)benzamide] | 1 (Class 1: The value of percent of control at 10^−7 M was less than 40% or the value of IC50 was less than 50 nM.) |
| Cc1cc(N(C)C)nc(N[C@H]2CC[C@@H](NC(=O)c3ccc(F)c(Cl)c3)CC2)n1 [compound 2963] | 1 (Class 1: The value of percent of control at 10^−7 M was less than 40% or the value of IC50 was less than 50 nM.) |
| Cc1cc(N(C)C)nc(N[C@H]2CC[C@@H](NC(=O)c3ccc(F)c(C)c3)CC2)n1 [compound 2964, N-(cis-4-{[4-(dimethylamino)-6-methylpyrimidin-2-yl]amino}cyclohexyl)-4-fluoro-3-methylbenzamide] | 1 (Class 1: The value of percent of control at 10^−7 M was less than 40% or the value of IC50 was less than 50 nM.) |
| Cc1cc(N(C)C)nc(N[C@H]2CC[C@@H](NC(=O)c3ccc(C)c(F)c3)CC2)n1 [compound 2965, N-(cis-4-{[4-(dimethylamino)-6-methylpyrimidin-2-yl]amino}cyclohexyl)-3-fluoro-4-methylbenzamide] | 1 (Class 1: The value of percent of control at 10^−7 M was less than 40% or the value of IC50 was less than 50 nM.) |
| Cc1cc(N(C)C)nc(N[C@H]2CC[C@@H](NC(=O)c3cc(Cl)cc(Cl)c3)CC2)n1 [compound 2966, 3,5-dichloro-N-(cis-4-{[4-(dimethylamino)-6-methylpyrimidin-2-yl]amino}cyclohexyl)benzamide] | 1 (Class 1: The value of percent of control at 10^−7 M was less than 40% or the value of IC50 was less than 50 nM.) |
| Cc1cc(N(C)C)nc(N[C@H]2CC[C@@H](NC(=O)c3cccc(OC(F)(F)F)c3)CC2)n1 [compound 2967, N-(cis-4-{[4-(dimethylamino)-6-methylpyrimidin-2-yl]amino}cyclohexyl)-3-(trifluoromethoxy)benzamide] | 1 (Class 1: The value of percent of control at 10^−7 M was less than 40% or the value of IC50 was less than 50 nM.) |
| Cc1cc(N(C)C)nc(N[C@H]2CC[C@@H](NC(=O)c3cc(F)cc(F)c3)CC2)n1 [compound 2968, N-(cis-4-{[4-(dimethylamino)-6-methylpyrimidin-2-yl]amino}cyclohexyl)-3,5-difluorobenzamide] | 1 (Class 1: The value of percent of control at 10^−7 M was less than 40% or the value of IC50 was less than 50 nM.) |
| Cc1cc(N(C)C)nc(N[C@H]2CC[C@@H](NC(=O)c3ccc(Br)c(C)c3)CC2)n1 [compound 2969, 4-bromo-N-(cis-4-{[4-(dimethylamino)-6-methylpyrimidin-2-yl]amino}cyclohexyl)-3-methylbenzamide] | 1 (Class 1: The value of percent of control at 10^−7 M was less than 40% or the value of IC50 was less than 50 nM.) |
| CCc1cccc(C(=O)N[C@H]2CC[C@@H](Nc3nc(C)cc(N(C)C)n3)CC2)c1 [compound 2970, N-(cis-4-{[4-(dimethylamino)-6-methylpyrimidin-2-yl]amino}cyclohexyl)-3-ethylbenzamide] | 3 (Class 3 The value of percent of control at 10^−7 M was more than 60% or the value of IC50 was more than 200 nM.) |
| CCOc1ccc(C(=O)N[C@H]2CC[C@@H](Nc3nc(C)cc(N(C)C)n3)CC2)cc1 [compound 2971] | 3 (Class 3 The value of percent of control at 10^−7 M was more than 60% or the value of IC50 was more than 200 nM.) |
| Cc1cc(N(C)C)nc(N[C@H]2CC[C@@H](NC(=O)c3ccc(C(F)(F)F)cc3)CC2)n1 [compound 2972, N-(cis-4-{[4-(dimethylamino)-6-methylpyrimidin-2-yl]amino}cyclohexyl)-4-(trifluoromethyl)benzamide] | 2 (Class 2: The value of percent of control at 10^−7 M was from 40% to 60% or the value of IC′50 was from 50 nM to 200 nM.) |
| Cc1cc(N(C)C)nc(N[C@H]2CC[C@@H](NC(=O)c3ccc(Br)cc3)CC2)n1 [compound 2973, 4-bromo-N-(cis-4-{[4-(dimethylamino)-6-methylpyrimidin-2-yl]amino}cyclohexyl)benzamide] | 1 (Class 1: The value of percent of control at 10^−7 M was less than 40% or the value of IC50 was less than 50 nM.) |
| CCc1ccc(C(=O)N[C@H]2CC[C@@H](Nc3nc(C)cc(N(C)C)n3)CC2)cc1 [compound 2974, N-(cis-4-{[4-(dimethylamino)-6-methylpyrimidin-2-yl]amino}cyclohexyl)-4-ethylbenzamide] | 2 (Class 2: The value of percent of control at 10^−7 M was from 40% to 60% or the value of IC′50 was from 50 nM to 200 nM.) |
| CCOc1cc(OCC)cc(C(=O)N[C@H]2CC[C@@H](Nc3nc(C)cc(N(C)C)n3)CC2)c1 [compound 2975, N-(cis-4-{[4-(dimethylamino)-6-methylpyrimidin-2-yl]amino}cyclohexyl)-3,5-diethoxybenzamide] | 1 (Class 1: The value of percent of control at 10^−7 M was less than 40% or the value of IC50 was less than 50 nM.) |
| CCOc1cccc(C(=O)N[C@H]2CC[C@@H](Nc3nc(C)cc(N(C)C)n3)CC2)c1 [compound 2976, N-(cis-4-{[4-(dimethylamino)-6-methylpyrimidin-2-yl]amino}cyclohexyl)-3-ethoxybenzamide] | 2 (Class 2: The value of percent of control at 10^−7 M was from 40% to 60% or the value of IC′50 was from 50 nM to 200 nM.) |
| Cc1cc(N(C)C)nc(N[C@H]2CC[C@@H](NC(=O)c3cccc(OC(C)C)c3)CC2)n1 [compound 2977, N-(cis-4-{[4-(dimethylamino)-6-methylpyrimidin-2-yl]amino}cyclohexyl)-3-isopropoxybenzamide] | 1 (Class 1: The value of percent of control at 10^−7 M was less than 40% or the value of IC50 was less than 50 nM.) |
| Cc1cc(N(C)C)nc(N[C@H]2CC[C@@H](NC(=O)c3cncc(Br)c3)CC2)n1 [compound 2978, 5-bromo-N-(cis-4-{[4-(dimethylamino)-6-methylpyrimidin-2-yl]amino}cyclohexyl)nicotinamide] | 1 (Class 1: The value of percent of control at 10^−7 M was less than 40% or the value of IC50 was less than 50 nM.) |
| Cc1cc(N(C)C)nc(N[C@H]2CC[C@@H](NC(=O)c3ccc(Br)o3)CC2)n1 [compound 2979, 5-bromo-N-(cis-4-{[4-(dimethylamino)-6-methylpyrimidin-2-yl]amino}cyclohexyl)-2-furamide] | 1 (Class 1: The value of percent of control at 10^−7 M was less than 40% or the value of IC50 was less than 50 nM.) |
| Cc1cc(N(C)C)nc(N[C@H]2CC[C@@H](NC(=O)c3ccc(Cl)o3)CC2)n1 [compound 2980, 5-chloro-N-(cis-4-{[4-(dimethylamino)-6-methylpyrimidin-2-yl]amino}cyclohexyl)-2-furamide] | 1 (Class 1: The value of percent of control at 10^−7 M was less than 40% or the value of IC50 was less than 50 nM.) |
| COc1ccc(C(=O)N[C@H]2CC[C@@H](Nc3nc(C)cc(N(C)C)n3)CC2)cc1C(F)(F)F [compound 2981, N-(cis-4-{[4-(dimethylamino)-6-methylpyrimidin-2-yl]amino}cyclohexyl)-4-methoxy-3-(trifluoromethyl)benzamide] | 2 (Class 2: The value of percent of control at 10^−7 M was from 40% to 60% or the value of IC′50 was from 50 nM to 200 nM.) |
| Cc1cc(N(C)C)nc(N[C@H]2CC[C@@H](NC(=O)c3ccc(Cl)c(C(F)(F)F)c3)CC2)n1 [compound 2982] | 1 (Class 1: The value of percent of control at 10^−7 M was less than 40% or the value of IC50 was less than 50 nM.) |
| Cc1cccc(C(=O)N[C@H]2CC[C@@H](Nc3nc(C)cc(N(C)C)n3)CC2)c1 [compound 2983, N-(cis-4-{[4-(dimethylamino)-6-methylpyrimidin-2-yl]amino}cyclohexyl)-3-methylbenzamide] | 1 (Class 1: The value of percent of control at 10^−7 M was less than 40% or the value of IC50 was less than 50 nM.) |
